Like-named read-outs stand apart in the source and are kept apart here.
How the values were obtained:
[1] = system: Key Broadleaf Weed and Crop Species; test: Post-Emergent Test II: postemergent herbicidal activity, visual rating after 14 d (Table 7); type: in vivo; details: post-emergence, 336 h; for pest or weed control at 35 g/ha: 35 g ai/ha; for pest or weed control at 70 g/ha: 70 g ai/ha; for pest or weed control at 140 g/ha: 140 g ai/ha
Outline: (§1)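 Greenhouse plants at first or second true leaf stage sprayed with compound in acetone/DMSO-based spray solution with crop oil concentrate and Triton X-155 at 187 L/ha, tested at highest rate and ½× to 1/16× dilutions; solvent blank controls. Injury rated visually 0–100% versus untreated plants after 14 d.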

[2] = system: Key Grass and Sedge Weeds as well as Grass Crops; test: Post-Emergent Test II: postemergent herbicidal activity, visual rating after 14 d (Table 8); type: in vivo; details: post-emergence, 336 h; for pest or weed control at 35 g/ha: 35 g ai/ha; for pest or weed control at 70 g/ha: 70 g ai/ha; for pest or weed control at 140 g/ha: 140 g ai/ha
Outline: as §1

[3] = lambsquarters (Chenopodium album), read-out: Visual Growth Reduction (%) 14 Days After Application CHEAL
[4] = oilseed rape, canola (Brassica napus), read-out: Visual Growth Reduction (%) 14 Days After Application BRSNN
[5] = redroot pigweed (Amaranthus retroflexus), read-out: Visual Growth Reduction (%) 14 Days After Application AMARE
[6] = sunflower (Helianthus annuus), read-out: Visual Growth Reduction (%) 14 Days After Application HELAN
[7] = velvetleaf (Abutilon theophrasti), read-out: Visual Growth Reduction (%) 14 Days After Application ABUTH
[8] = wild poinsettia (Euphorbia heterophylla), read-out: Visual Growth Reduction (%) 14 Days After Application EPHHL
[9] = barnyardgrass (Echinochloa crus-galli), read-out: Visual Growth Reduction (%) 14 Days After Application ECHCG
[10] = giant foxtail (Setaria faberi), read-out: Visual Growth Reduction (%) 14 Days After Application SETFA
[11] = maize, corn (Zea mays), read-out: Visual Growth Reduction (%) 14 Days After Application ZEAMX
[12] = rice (Oryza sativa), read-out: Visual Growth Reduction (%) 14 Days After Application ORYSA
[13] = wheat, spring (Triticum aestivum), read-out: Visual Growth Reduction (%) 14 Days After Application TRZAS
[14] = yellow nutsedge (Cyperus esculentus), read-out: Visual Growth Reduction (%) 14 Days After Application CYPES

| Compound | pest or weed control at 35 g/ha [1, 3] | pest or weed control at 70 g/ha [1, 3] | pest or weed control at 140 g/ha [1, 3] | pest or weed control at 35 g/ha [1, 4] | pest or weed control at 70 g/ha [1, 4] | pest or weed control at 140 g/ha [1, 4] | pest or weed control at 35 g/ha [1, 5] | pest or weed control at 70 g/ha [1, 5] | pest or weed control at 140 g/ha [1, 5] | pest or weed control at 35 g/ha [1, 6] | pest or weed control at 70 g/ha [1, 6] | pest or weed control at 140 g/ha [1, 6] | pest or weed control at 35 g/ha [1, 7] | pest or weed control at 70 g/ha [1, 7] | pest or weed control at 140 g/ha [1, 7] | pest or weed control at 35 g/ha [1, 8] | pest or weed control at 70 g/ha [1, 8] | pest or weed control at 140 g/ha [1, 8] | pest or weed control at 35 g/ha [2, 9] | pest or weed control at 70 g/ha [2, 9] | also measured |
| --- | --- | --- | --- | --- | --- | --- | --- | --- | --- | --- | --- | --- | --- | --- | --- | --- | --- | --- | --- | --- | --- |
| COC(=O)c1nc(-c2ccc3c(c2)OC(C)O3)c(F)c(N)c1Cl (stereo not drawn) [Compound 20] | 0 to 29% | 30 to 44% | 75 to 84% | 0 to 29% | 0 to 29% | 30 to 44% | 60 to 74% | 95 to 100% | 95 to 100% | 60 to 74% | 75 to 84% | 85 to 94% | 30 to 44% | 60 to 74% | 95 to 100% | 45 to 59% | 85 to 94% | 85 to 94% | 60 to 74% | 75 to 84% | pest or weed control at 140 g/ha [2, 9]: 85 to 94%; pest or weed control at 35 g/ha [2, 10]: 45 to 59%; pest or weed control at 70 g/ha [2, 10]: 75 to 84%; pest or weed control at 140 g/ha [2, 10]: 85 to 94%; pest or weed control at 35 g/ha [2, 11]: 30 to 44%; pest or weed control at 70 g/ha [2, 11]: 45 to 59%; pest or weed control at 140 g/ha [2, 11]: 60 to 74%; pest or weed control at 35 g/ha [2, 12]: 0 to 29%; pest or weed control at 70 g/ha [2, 12]: 30 to 44%; pest or weed control at 140 g/ha [2, 12]: 30 to 44%; pest or weed control at 35 g/ha [2, 13]: 0 to 29%; pest or weed control at 70 g/ha [2, 13]: 0 to 29%; pest or weed control at 140 g/ha [2, 13]: 0 to 29%; pest or weed control at 35 g/ha [2, 14]: 45 to 59%; pest or weed control at 70 g/ha [2, 14]: 75 to 84%; pest or weed control at 140 g/ha [2, 14]: 85 to 94% |
| Nc1cc(-c2ccc3c(c2F)OC(F)(F)O3)nc(C(=O)O)c1Cl [Compound 41] | 85 to 94% | 85 to 94% | 85 to 94% | 60 to 74% | 75 to 84% | 75 to 84% | 95 to 100% | 95 to 100% | 95 to 100% | 0 to 29% | 60 to 74% | 60 to 74% | 60 to 74% | 75 to 84% | 75 to 84% | 95 to 100% | 95 to 100% | 95 to 100% | 75 to 84% | 85 to 94% | pest or weed control at 140 g/ha [2, 9]: 95 to 100%; pest or weed control at 35 g/ha [2, 10]: 75 to 84%; pest or weed control at 70 g/ha [2, 10]: 85 to 94%; pest or weed control at 140 g/ha [2, 10]: 85 to 94%; pest or weed control at 35 g/ha [2, 11]: 60 to 74%; pest or weed control at 70 g/ha [2, 11]: 75 to 84%; pest or weed control at 140 g/ha [2, 11]: 75 to 84%; pest or weed control at 35 g/ha [2, 12]: 0 to 29%; pest or weed control at 70 g/ha [2, 12]: 0 to 29%; pest or weed control at 140 g/ha [2, 12]: 0 to 29%; pest or weed control at 35 g/ha [2, 13]: 30 to 44%; pest or weed control at 70 g/ha [2, 13]: 30 to 44%; pest or weed control at 140 g/ha [2, 13]: 45 to 59%; pest or weed control at 35 g/ha [2, 14]: 0 to 29%; pest or weed control at 70 g/ha [2, 14]: 0 to 29%; pest or weed control at 140 g/ha [2, 14]: 0 to 29% |

Source: patent US9149038B2, “4-amino-6-(heterocyclic)picolinates and 6-amino-2-(heterocyclic)pyrimidine-4-carboxylates and their use as herbicides” (Dow AgroSciences LLC, priority 2013, dated 2015)
